The source of these data is patent US10973863B2, “Method for regulating, preventing and/or treating pulmonary injury” (SINPHAR PHARMACEUTICAL CO., LTD., priority 2017, dated 2021).

In experiment [1] the test system is MMP-9. Description: Gelatin zymography: LPS-activated active expression of MMP-9 in NR8383 cells. Type of experiment: cell-based, rat. Conditions: LPS 1 μg/mL, 24 hours. From the text: As indicated above, when an inflammatory response occurs in animal's pulmonary tissue, the active inflammatory cells will secret MMPs that will destroy the pulmonary tissue structure, cause more serious pulmonary injury, and lead to the decrement in or the loss of pulmonary functions. […]
Thereafter, the medium of each group was collected and respectively subjected to the following procedures. A 10% polyacrylamide gel containing 0.2% gelatin was used to carry out the sodium dodecyl sulfate polyacrylamide gel electrophoresis (SDS-PAGE). After the electrophoresis was completed, the gel was sequentially soaked in 2.5% Triton X-100 solution for 90 minutes to remove SDS, soaked in distillation-distillation water (ddH2O) for 30 minutes, and placed in a reaction solution (50 mM Tris-HCl buffer containing 10 mM CaCl2 and 0.02% NaN3) at a temperature of 37° C. for 18 hours. After the foregoing reaction was completed, the gel was stained by a Coomassie blue staining solution, and the image of stained gel was taken and subjected to an image analysis. The image intensity (the image intensity was calculated based on the size of area and the shade of color) of highlight band (i.e., the gelatin in this area was degraded by MMPs, wherein the area locating around 95 kD molecular weight) on the gel of each group can reflect the active expression of MMP-9 of rat alveolar macrophage NR8383 cells under different conditions (the relative active expression of MMP-9 was calculated by serving the results of the blank group as 0% and serving that of the control group as 100%).
Rat alveolar macrophage NR8383 cells were divided into twenty-eight groups and separately cultivated with the following media for 24 hours: • (1) Blank group: a macrophage growth medium; • (2) Control group: a macrophage growth medium containing 1 μg/mL LPS; • (3) Positive control group: a macrophage growth medium containing 1 μg/mL LPS and 5 μM Prednisolone (a type of corticosteroid; abbreviated as “Pred”; purchased from Sigma-Aldrich); • (4) Extract C (including five sub-groups): a macrophage growth medium containing 1 μg/mL LPS and the extract C provided by [preparation example A-3-2], wherein the extract C is present in the five sub-groups at a concentration of […] respectively; • (5) Extract D (including five sub-groups): a macrophage growth medium containing 1 μg/mL UPS and the extract D provided by [preparation example A-4-2], wherein the extract D is present in the five sub-groups at a concentration of 0.78, 1.56, 3.13, 6.25 and 12.5 respectively; • (6) Extract E (including five sub-groups): a macrophage growth medium containing 1 μg/mL LPS and the extract E provided from [preparation example A-4-3], wherein the extract E is present in the five sub-groups at a concentration of 0.78, 1.56, 3.13, […], and 12.5 respectively; • (7) DATA group (including five sub-groups): a macrophage growth medium containing 1 μg/mL LPS and the dehydrotrametenolic acid (DTTA) provided by [preparation example C-1], wherein the dehydrotrametenolic acid (DTTA) is present in the five sub-groups at a concentration of 0.39, 0.78, 1.56, 3.13 and 6.25 μg/mL respectively; and • (8) PAA group (including live sub-groups): a macrophage growth medium containing 1 μg/mL LPS and the poricoic acid A (PAA) provided from [preparation example C-1], wherein the poricoic acid A (PAA) is present in the five sub-groups at a concentration of 6.25, 12.5, 25, 50 and 100 respectively.
Thereafter, the medium of each group was collected and analyzed by the analyzing procedures same as that of (1-1).

Experiment [2] deals with TGFβ-induced intracellular accumulation of collagen in myofibroblast WI38 cells. Description: Picrosirius red staining: TGFβ-induced collagen accumulation in WI38 cells. The format is cell-based. Conditions: 1 ng/mL TGF-β. The source says:
As indicated above, the hyperactive expression of MMPs will cause pulmonary injury. Under the most circumstances, the response mechanisms in animals will activate, for example, macrophages will secret TGF-β and TGF-β which can promote the lung fibroblasts to secret collagen, so that the damaged tissues can be recovered. However, the hypersecretion of collagen will also lead to lung fibrosis. To investigate whether FU-LING extracts and its active ingredients are effective in regulating, protecting and/or treating the pulmonary injury-related diseases such as lung fibrosis or not, the Picrosirius red (PSR) staining was conducted as a semi-quantification of collagen, so that the inhibitory rate of FU-LING extract and its active ingredients on the TGFβ-induced intracellular accumulation of collagen in myofibroblast WI38 cells can be determined.
Myofibroblast WI38 cells (purchased from ATCC, product no. CCL75™) were divided into ten groups and separately cultivated with the following media for 48 hours:
(1) Blank group: a myolibroblast growth medium;
(2) Control group: a myofibroblast growth medium containing 1 ng/mL TGF-β (purchased from R&D system);
(3) Positive control group: a myofibroblast growth medium containing 1 ng/mL TGF-β and 200 μg/mL Pirfenidone (abbreviated as “Pir”; purchased from Sigma-Aldrich);
(4) Extract A (including four sub-groups): a myofibroblast growth medium containing 1 ng/mL TGF-β and the extract A provided by [Preparation example A-2-2], wherein the extract A is present in the four sub-groups at a concentration of 12.5, 25, 50 and 100 μg/mL respectively; and
(5) Extract B (including three sub-groups): a myofibroblast growth medium containing 1 ng/ml, TGF-β and the extract B provided by [Preparation example A-2-3], wherein the extract B is present in the […] at a concentration of 12.5, 25 and 50 μg/mL respectively.
Thereafter, the media were replaced by methanol to fix the cells at a temperature of −20° C. for 1 to 2 hours. After that, the cells were washed with PBS, and then stained with 0.1% PSR staining agent (purchased from Sigma-Aldrich) at room temperature for 4 hours. The stained cells were washed with 0.1% acetic acid, and then lysed with 0.1N sodium hydroxide to provide a lysate. The OD540 (i.e., the absorbance at a wavelength of 540 nm) of the lysate was measured. OD540 value of each group represents the content of collagen in each group, reflecting the content of collagen in fibroblast WI38 cells under different circumstances (the relative content of collagen in each group was calculated by serving the result of blank group as 0% and serving the result of control group as 100%).
Myofibroblast WI38 cells were divided into twenty-eight groups and separately cultivated with the following media for 24 hours:
(1) Blank group: a myofibroblast growth medium;
(3) Positive control group; a myofibroblast growth medium containing 1 ng/mL TGF-β and 200 μg/mL Pirfenidone (abbreviated as “Pir”; purchased from Sigma-Aldrich);
(4) Extract C group (including five sub-groups): a myofibroblast growth medium containing 1 ng/mL TGF-β and the extract C provided by [preparation example A-3-2], wherein the extract C is present in the five sub-groups at a concentration of […], 6.25 and 12.5 μg/mL respectively;
(5) Extract D group (including five sub-groups): a myofibroblast growth medium containing 1 ng/mL TGF-β and the extract D provided by [preparation example A-4-2], wherein the extract D is present in the five sub-groups at a concentration of 0.78, 1.56, 3.13, 6.25 and 12.5 μg/mL respectively;
(6) Extract E group (including five sub-groups): a myofibroblast growth medium containing 1 ng/mL TGF-β and the extract E provided by [preparation example A-4-3], wherein the extract E is present in the five sub-groups at a concentration of 0.78, 1.56, 3.13, 6.25 and 12.5 μg/mL respectively; […]

In the case of `C[C@@H]1C[C@H]2[C@@H]3CCC4=CC(=O)C=C[C@]4(C)[C@@]3(F)[C@@H](O)C[C@]2(C)[C@@]1(O)C(=O)CO` [Dex, dexamethasone, reference compound], in experiment [1] (Table 4, Dex 1 μM, blank 0%, control 100%), the “Relative active expression of MMP-9 (%)” value was determined as 100%.
Regarding `C=C(CC[C@@H](C(=O)O)[C@H]1[C@H](O)C[C@@]2(C)C3=CC[C@H]4C(C)(C)[C@@H](O)CC[C@]4(C)C3=CC[C@]12C)C(C)C` [DTA, dehydrotumulosic acid], the “Relative active expression of MMP-9 (%)” value in experiment [1] (Table 4, 3.13 μg/mL) came out at 79.7%; in experiment [1] (Table 4, 6.25 μg/mL), 83.9%; in experiment [1] (Table 4, 12.5 μg/mL), 80.7%.
Regarding `C[C@]12C=CC(=O)C=C1CC[C@@H]1[C@@H]2[C@@H](O)C[C@@]2(C)[C@H]1CC[C@]2(O)C(=O)CO` [Pred, Prednisolone, reference compound], the “Effect on inhibiting the 1 μg/mL LPS-induced increment in active expression of MMP-9 (in words)” value in experiment [1] (all tested concentrations) is “cannot inhibit”. The “Relative active expression of MMP-9 (%)” value in experiment [1] (Table 5, Pred 5 μM, blank 0%, control 100%) came out at 97%.
Consider `Cc1ccc(=O)n(-c2ccccc2)c1` [Pir, Pirfenidone, reference compound], for which the “Relative content of collagen (%)” value was determined as 69% in experiment [2] (Table 6, Pir 200 μg/mL, 48 hours, blank 0%, control 100%) and 0% in experiment [2] (Table 7, Pir 200 μg/mL, 24 hours, blank 0%, control 100%).
Take `CC(C)=CCC[C@@H](C(=O)O)[C@H]1CC[C@@]2(C)C3=CC[C@H]4C(C)(C)[C@@H](O)CC[C@]4(C)C3=CC[C@]12C` [DTTA, dehydrotrametenolic acid]: the “Relative active expression of MMP-9 (%)” value is on record as 91% in experiment [1] (Table 5, 0.39 μg/mL); 99% in experiment [1] (Table 5, 0.78 μg/mL); 79% in experiment [1] (Table 5, 1.56 μg/mL); 72% in experiment [1] (Table 5, 3.13 μg/mL); 74% in experiment [1] (Table 5, 6.25 μg/mL). The “Relative content of collagen (%)” value in experiment [2] (Table 7, 0.39 μg/mL, 24 hours) is reported as 25%; in experiment [2] (Table 7, 0.78 μg/mL, 24 hours) it was 100%; in experiment [2] (Table 7, 1.56 μg/mL, 24 hours), 25%; in experiment [2] (Table 7, 3.13 μg/mL, 24 hours) it was 53%; in experiment [2] (Table 7, 6.25 μg/mL, 24 hours), 70%.
